Reference: patent US20240366770A1, “DEGRADATION OF BRUTON'S TYROSINE KINASE (BTK) BY CONJUGATION OF BTK INHIBITORS WITH E3 LIGASE LIGAND AND METHODS OF USE” (BeiGene Switzerland GmbH, priority 2021, published 2024)

Tests used:
BTK = target: T1, BTK (Homo sapiens, UniProt Q06187); test: BTK degradation in TMD-8 cells (HTRF assay); assay type: cell-based; conditions: 6 h treatment, IC50 (DC50) of BTK degradation
T1 construct: High control=Cell group with added DMSO and without compound, indicating microplate readings without BTK degradation; endogenous in cells; host or cells: TMD-8
In short: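 BTK remaining after compound treatment was measured by HTRF (337 nm excitation, 665/620 nm emission) in lysates of TMD-8 cells. Cells were exposed for 6 h to eight 6-fold-spaced concentrations in 0.2% DMSO. DC50 values were obtained from a Hill-equation fit (top, bottom, slope) of % inhibition.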

HEK-293 cells = test: HEK-293 cytotoxicity detection (CellTiter-Glo); assay type: cell-based; conditions: Homo sapiens; HEK-293 cells, 72 h incubation, CellTiter-Glo luminescence, IC50 of cell proliferation inhibition; read-out: HEK293
In short: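 Four-parameter logistic fitting of percent inhibition versus concentration gives IC50. Luminescent ATP read-out (CellTiter-Glo) after 72 h compound treatment of HEK-293 cells, 8 doses in 4-fold steps from a 5 mM 500× DMSO stock, final DMSO 0.2%.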

T1 sequence (Q06187 whole entry): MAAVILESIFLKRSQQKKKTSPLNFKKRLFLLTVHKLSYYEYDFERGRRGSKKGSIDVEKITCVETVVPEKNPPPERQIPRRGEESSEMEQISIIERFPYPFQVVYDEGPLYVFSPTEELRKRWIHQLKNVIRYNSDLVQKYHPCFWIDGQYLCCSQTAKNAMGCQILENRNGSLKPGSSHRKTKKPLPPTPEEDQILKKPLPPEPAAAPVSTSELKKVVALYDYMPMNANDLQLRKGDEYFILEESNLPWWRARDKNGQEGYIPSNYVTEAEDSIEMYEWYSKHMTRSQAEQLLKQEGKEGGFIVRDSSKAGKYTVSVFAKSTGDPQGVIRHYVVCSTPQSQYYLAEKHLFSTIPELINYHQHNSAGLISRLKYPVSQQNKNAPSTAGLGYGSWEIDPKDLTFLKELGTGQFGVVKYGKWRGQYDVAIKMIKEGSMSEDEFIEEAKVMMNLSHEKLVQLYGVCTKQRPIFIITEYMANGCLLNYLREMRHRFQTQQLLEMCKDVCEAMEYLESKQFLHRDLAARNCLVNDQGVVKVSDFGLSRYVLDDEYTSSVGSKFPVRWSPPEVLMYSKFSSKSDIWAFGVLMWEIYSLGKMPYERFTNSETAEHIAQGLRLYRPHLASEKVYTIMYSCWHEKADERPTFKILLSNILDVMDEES

SMILES: Cc1cc2c(cc1N1CCN(CC3CCN(c4ccc(N5CCC(=O)NC5=O)cc4)CC3)CC1)[nH]c1ncnc(-c3cc(CO)c([C@@H](C)NC(=O)c4nc(C(C)(C)C)no4)cc3F)c12 [Example 40, (R)-3-(tert-butyl)-N-(1-(4-(7-(4-((1-(4-(2,4-dioxotetrahydropyrimidin-1(2H)-yl)phenyl)piperidin-4-yl)methyl)piperazin-1-yl)-6-methyl-9H-pyrimido[4,5-b]indol-4-yl)-5-fluoro-2-(hydroxymethyl)phenyl)ethyl)-1,2,4-oxadiazole-5-carboxamide]
- DC50 (BTK): 2.12 nM
- IC50 (HEK-293 cells): > 10000 nM

SMILES: Cc1cc(-c2ncnc3[nH]c4cc(N5CCN(C6CN(C7CN(c8ccc9c(c8)C(=O)N(C8CCC(=O)NC8=O)C9=O)C7)C6)CC5)ccc4c23)ccc1[C@@H](C)NC(=O)c1nc(C2(C)CC2)no1 (stereo partly drawn) [Example 121, N-((1R)-1-(4-(7-(4-(1′-(2-(2,6-dioxopiperidin-3-yl)-1,3-dioxoisoindolin-5-yl)-[1,3′-biazetidin]-3-yl)piperazin-1-yl)-9H-pyrimido[4,5-b]indol-4-yl)-2-methylphenyl)ethyl)-3-(1-methylcyclopropyl)-1,2,4-oxadiazole-5-carboxamide]
- DC50 (BTK): 1.58 nM
- IC50 (HEK-293 cells): > 10000 nM

SMILES: COc1cc2c(cc1N1CCN(CC3CCN(c4ccc(N5CCC(=O)NC5=O)cc4)CC3)CC1)[nH]c1ncnc(-c3ccc([C@@H](C)NC(=O)c4nc(C(C)(C)C)no4)c(C)c3F)c12 [Example 54, (R)-3-(tert-butyl)-N-(1-(4-(7-(4-((1-(4-(2,4-dioxotetrahydropyrimidin-1(2H)-yl)phenyl)piperidin-4-yl)methyl)piperazin-1-yl)-6-methoxy-9H-pyrimido[4,5-b]indol-4-yl)-3-fluoro-2-methylphenyl)ethyl)-1,2,4-oxadiazole-5-carboxamide]
- DC50 (BTK): 3.05 nM
- IC50 (HEK-293 cells): > 10000 nM

SMILES: Cc1c([C@@H](C)NC(=O)c2nc(C3(C)CC3)no2)ccc(-c2ncnc3[nH]c4cc(N5CCN(C6CC(c7ccc([C@H]8CCC(=O)NC8=O)cc7)C6)CC5)ccc4c23)c1F (stereo partly drawn) [Example 66, N—((R)-1-(4-(7-(4-(3-(4-((R)-2,6-dioxopiperidin-3-yl)phenyl)cyclobutyl)piperazin-1-yl)-9H-pyrimido[4,5-b]indol-4-yl)-3-fluoro-2-methylphenyl)ethyl)-3-(1-methylcyclopropyl)-1,2,4-oxadiazole-5-carboxamide]
- DC50 (BTK): 4.1 nM
- IC50 (HEK-293 cells): > 10000 nM

SMILES: Cc1cc(-c2ncnc3[nH]c4ccc(C5CCN(CC6CCN(c7ccc(N8CCC(=O)NC8=O)cc7)CC6)CC5)cc4c23)ccc1CNC(=O)c1nc(C(C)(C)C)no1 [Example 2, 3-(tert-butyl)-N-(4-(6-(1-((1-(4-(2,4-dioxotetrahydropyrimidin-1(2H)-yl)phenyl)piperidin-4-yl)methyl)piperidin-4-yl)-9H-pyrimido[4,5-b]indol-4-yl)-2-methylbenzyl)-1,2,4-oxadiazole-5-carboxamide]
- DC50 (BTK): > 2000 nM
- IC50 (HEK-293 cells): 3950 nM

SMILES: Cc1cc(-c2ncnc3[nH]c4cc(C5CCN(CCCOc6ccc(NC7CCC(=O)NC7=O)cc6)CC5)ccc4c23)ccc1CNC(=O)c1nc(C(C)(C)C)no1 (stereo not shown) [Example 3, 3-(tert-butyl)-N-(4-(7-(1-(3-(4-((2,6-dioxopiperidin-3-yl)amino)phenoxy)propyl)piperidin-4-yl)-9H-pyrimido[4,5-b]indol-4-yl)-2-methylbenzyl)-1,2,4-oxadiazole-5-carboxamide]
- DC50 (BTK): 2.15 nM
- IC50 (HEK-293 cells): > 10000 nM

SMILES: Cc1cc(-c2ncnc3[nH]c4cc(N5CCN([C@H]6C[C@@H](c7ccc(NC8CCC(=O)NC8=O)cc7)C6)CC5)ccc4c23)ccc1[C@@H](C)NC(=O)c1nc(C2(C)CC2)no1 (stereo partly drawn) [Example 115, N-((1R)-1-(4-(7-(4-((1s,3s)-3-(4-((2,6-dioxopiperidin-3-yl)amino)phenyl)cyclobutyl)piperazin-1-yl)-9H-pyrimido[4,5-b]indol-4-yl)-2-methylphenyl)ethyl)-3-(1-methylcyclopropyl)-1,2,4-oxadiazole-5-carboxamide]
- DC50 (BTK): 0.759 nM
- IC50 (HEK-293 cells): > 10000 nM

SMILES: COc1cc2c(cc1N1CCN(Cc3ccc4c(c3)C(C)(C)C(=O)N4C3CCC(=O)NC3=O)CC1)[nH]c1ncnc(-c3cc(C)c([C@@H](C)NC(=O)c4nc(C(C)(C)C)no4)cc3F)c12 (stereo partly drawn) [Example 83, 3-(tert-butyl)-N-((1R)-1-(4-(7-(4-((1-(2,6-dioxopiperidin-3-yl)-3,3-dimethyl-2-oxoindolin-5-yl)methyl)piperazin-1-yl)-6-methoxy-9H-pyrimido[4,5-b]indol-4-yl)-5-fluoro-2-methylphenyl)ethyl)-1,2,4-oxadiazole-5-carboxamide]
- DC50 (BTK): 2.42 nM
- IC50 (HEK-293 cells): > 10000 nM

SMILES: Cc1cc(-c2ncnc3[nH]c4cc(N5CCN(CCc6ccc(N7CCC(=O)NC7=O)c(C)c6)CC5)ccc4c23)ccc1[C@@H](C)NC(=O)c1nc(C(C)(C)C)no1 [Example 17, (R)-3-(tert-butyl)-N-(1-(4-(7-(4-(4-(2,4-dioxotetrahydropyrimidin-1(2H)-yl)-3-methylphenethyl)piperazin-1-yl)-9H-pyrimido[4,5-b]indol-4-yl)-2-methylphenyl)ethyl)-1,2,4-oxadiazole-5-carboxamide]
- DC50 (BTK): 0.341 nM
- IC50 (HEK-293 cells): > 10000 nM

SMILES: Cc1cc(-c2ncnc3[nH]c4cc(CCN5CCN(c6ccc(N7CCC(=O)NC7=O)cc6)CC5)ccc4c23)ccc1[C@@H](C)NC(=O)c1nc(C(C)(C)C)no1 [Example 106, (R)-3-(tert-butyl)-N-(1-(4-(7-(2-(4-(4-(2,4-dioxotetrahydropyrimidin-1(2H)-yl)phenyl)piperazin-1-yl)ethyl)-9H-pyrimido[4,5-b]indol-4-yl)-2-methylphenyl)ethyl)-1,2,4-oxadiazole-5-carboxamide]
- DC50 (BTK): 0.324 nM
- IC50 (HEK-293 cells): > 10000 nM

SMILES: COc1cc2c(cc1N1CCN(CC3CCN(c4ccc(N5CCC(=O)NC5=O)cc4)CC3)CC1)[nH]c1ncnc(-c3ccc([C@@H](C)NC(=O)c4nc(C5(C)CC5)no4)c(C)c3)c12 [Example 52, (R)—N-(1-(4-(7-(4-((1-(4-(2,4-dioxotetrahydropyrimidin-1(2H)-yl)phenyl)piperidin-4-yl)methyl)piperazin-1-yl)-6-methoxy-9H-pyrimido[4,5-b]indol-4-yl)-2-methylphenyl)ethyl)-3-(1-methylcyclopropyl)-1,2,4-oxadiazole-5-carboxamide]
- DC50 (BTK): 0.361 nM
- IC50 (HEK-293 cells): > 10000 nM

SMILES: Cc1cc(-c2ncnc3[nH]c4cc(N5CCN([C@H]6C[C@@H](c7ccc(N[C@H]8CCC(=O)NC8=O)cc7)C6)CC5)ccc4c23)ccc1[C@@H](C)NC(=O)c1nc(C2(C)CC2)no1 [Example 120, N—((R)-1-(4-(7-(4-((1R,3s)-3-(4-(((S)-2,6-dioxopiperidin-3-yl)amino)phenyl)cyclobutyl)piperazin-1-yl)-9H-pyrimido[4,5-b]indol-4-yl)-2-methylphenyl)ethyl)-3-(1-methylcyclopropyl)-1,2,4-oxadiazole-5-carboxamide]
- DC50 (BTK): 1.25 nM
- IC50 (HEK-293 cells): > 10000 nM

SMILES: COc1cc2c(cc1N1CCN(C3CCC(c4ccc(C5CCC(=O)NC5=O)cc4)CC3)CC1)[nH]c1ncnc(-c3ccc([C@@H](C)NC(=O)c4nc(C(C)(C)C)no4)c(C)c3)c12 (stereo partly drawn) [Example 48, 3-(tert-butyl)-N-((1R)-1-(4-(7-(4-(4-(4-(2,6-dioxopiperidin-3-yl)phenyl)cyclohexyl)piperazin-1-yl)-6-methoxy-9H-pyrimido[4,5-b]indol-4-yl)-2-methylphenyl)ethyl)-1,2,4-oxadiazole-5-carboxamide]
- DC50 (BTK): 0.874 nM
- IC50 (HEK-293 cells): > 10000 nM

SMILES: CN1CCN(CC2CCN(c3ncnc4[nH]c5cc(N6CCN(CC7CCN(c8ccc(N9CCC(=O)NC9=O)cc8)CC7)CC6)ccc5c34)CC2)C1=O [Example 81, 1-(4-(4-((4-(4-(4-((3-methyl-2-oxoimidazolidin-1-yl)methyl)piperidin-1-yl)-9H-pyrimido[4,5-b]indol-7-yl)piperazin-1-yl)methyl)piperidin-1-yl)phenyl)dihydropyrimidine-2,4(1H,3H)-dione]
- DC50 (BTK): > 2000 nM
- IC50 (HEK-293 cells): > 10000 nM

SMILES: Cc1c([C@@H](C)NC(=O)c2noc(C(C)(C)C)n2)ccc(-c2ncnc3[nH]c4cc(N5CCN(Cc6ccc7c(c6)N(C6CCC(=O)NC6=O)C(=O)C7(C)C)CC5)ccc4c23)c1F (stereo partly drawn) [Example 85, 5-(tert-butyl)-N-((1R)-1-(4-(7-(4-((1-(2,6-dioxopiperidin-3-yl)-3,3-dimethyl-2-oxoindolin-6-yl)methyl)piperazin-1-yl)-9H-pyrimido[4,5-b]indol-4-yl)-3-fluoro-2-methylphenyl)ethyl)-1,2,4-oxadiazole-3-carboxamide]
- DC50 (BTK): > 2000 nM
- IC50 (HEK-293 cells): > 10000 nM

SMILES: Cc1cc(-c2ncnc3[nH]c4cc(N5CCC6(CC5)CCN(C5CC(c7ccc(NC8CCC(=O)NC8=O)cc7)C5)C6)ccc4c23)ccc1[C@@H](C)NC(=O)c1nc(C(C)(C)C)no1 (stereo partly drawn) [Example 103, 3-(tert-butyl)-N-((1R)-1-(4-(7-(2-(3-(4-((2,6-dioxopiperidin-3-yl)amino)phenyl)cyclobutyl)-2,8-diazaspiro[4.5]decan-8-yl)-9H-pyrimido[4,5-b]indol-4-yl)-2-methylphenyl)ethyl)-1,2,4-oxadiazole-5-carboxamide]
- DC50 (BTK): 3.05 nM
- IC50 (HEK-293 cells): 1060 nM

SMILES: Cc1cc(-c2ncnc3[nH]c4cc(C5CCN(C6CC(c7ccc([C@H]8CCC(=O)NC8=O)cc7)C6)C5)ccc4c23)ccc1[C@@H](C)NC(=O)c1nc(C(C)(C)C)no1 (stereo partly drawn) [Example 20, 3-(tert-butyl)-N-((1R)-1-(4-(7-(1-(3-(4-((R)-2,6-dioxopiperidin-3-yl)phenyl)cyclobutyl)pyrrolidin-3-yl)-9H-pyrimido[4,5-b]indol-4-yl)-2-methylphenyl)ethyl)-1,2,4-oxadiazole-5-carboxamide]
- DC50 (BTK): 1.3 nM
- IC50 (HEK-293 cells): 3520 nM
